Laboratory results reported in PMC8070582, “Therapeutic Efficacy of a Novel Acetylated Tetrapeptide in Animal Models of Age-Related Macular Degeneration” (International Journal of Molecular Sciences, 2021).
Where “and” joins values, the source holds several entries; their conditions need not be identical. Equal entries are not always repeated. Entries after “also recorded” stand apart in the source; their conditions may differ.

Legend:
[1] = cited from earlier work
[2] = tested on: corneal neovascularization; set-up: method as in PMID 24240485; conditions: administered on day 7 after suture placement; 1 week post-treatment; cited from earlier work
[3] = tested on: choroidal neovascularization (CNV); assay: Laser-induced CNV mouse model, treatment on the same day as laser irradiation (CNV area); type: in vivo; conditions: day 7, vs vehicle (p < 0.001)
Description: Six-week-old male C57BL/6J mice were purchased from Central Laboratory Animal and then maintained in a specific pathogen free facility in Seoul National University. After deep anesthesia with zolazepam plus tiletamine (3.75 mg/kg, Virbac, Seoul, Korea) and xylazine (7.5 mg/kg, Bayer AG, Leverkusen, Germany), mice were treated with a customized laser indirect ophthalmoscope system (ILOODA) to break Bruch’s membrane (300 μm spot size, 300 mW power, and 100 ms exposure time) as described previously. After the laser irradiation, 10 μL PBS (vehicle), 1 ng of each peptide (RLYE, R(D)LYE and Ac-RLYE), or 145 ng of aflibercept was administered into the vitreous cavity of mice (six per each treatment group) at the same day as laser irradiation. At 7 days after the laser irradiation, the RPE-choroid-scleral complexes were prepared from the enucleated eyes. After immunostaining of the RPE-choroid-scleral complexes with isolectin B4 conjugated with Alexa Fluor-594 (1:100; cat. No. I21413, Invitrogen, Waltham, MA, USA), the CNV area was quantitatively analyzed by the measurement of the area using the ImageJ software. All animal experiments were carried out according to the guidelines of the Ethics Committee for Protection and Use of Experimental Animals of Seoul National University.

[4] = tested on: choroidal neovascularization (CNV); assay: Rabbit 4-week laser-induced CNV model (retinal fluorescence intensity); type: in vivo; conditions: 2000 µg/eye intravitreal; only until day 14 after CNV induction
Description: From the day of laser irradiation to 7, 14, 21, and 28 days after laser induced CNV, the rabbits were instilled with a 1% Mydriacyl eye drop and then anesthetized.

[5] = tested on: choroidal neovascularization (CNV); assay: Rabbit 7-week CNV model, treatment 1 week after laser irradiation; type: in vivo
Description: From the day of laser irradiation to 7, 14, 21, 28, 35, 42, and 49 days after laser induced CNV, the rabbits were instilled with a 1% Mydriacyl eye drop and then anesthetized.
Fundus photography of retinal angiography was performed at the 42nd day from test substance treatment. Additionally, the eyes were then removed and fixed in 10% formalin solution for 24 h. The cornea, lens, and retina were removed. After washing with PBS, the […] and choroid complex (RPE-choroid complex) just remained from fixed eyes. The CNV area was stained with rhodamine conjugated isolectin B4 (IB4, Sigma-Aldrich, St. Louis, MO, USA) for 24 h at 4 °C. After staining, they were washed in PBS, flat-mounted on a glass slide, and then observed with a fluorescence microscope equipped with a digital camera and photographed. The CNV area was measured by ImageJ software.

retinal vascular leakage = assay: Streptozotocin-induced diabetic mouse model, retinal vascular leakage; type: in vivo; conditions: 1 µL of 1.5 mM intravitreal; 24 h after treatment; vs vehicle; RLYE 0.01 < p < 0.05, Ac-RLYE p < 0.01
Description: To prepare a streptozotocin-induced diabetic mouse model, a freshly prepared STZ solution (100 mM) in a citrate buffer (100 mM, pH 4.5) was injected intraperitoneally at 150 mg/kg into the mice, and to prevent hypoglycemic shock, 10% sucrose was sufficiently provided. After two days, blood glucose was measured using an Accu-Chek Performa blood glucose meter (Roche Diagnostics GmbH, Mannheim, Germany), and when non-fasting blood glucose within 1 to 2 weeks was maintained at 300 mg/dl or more, the mice were used as diabetic animal models. […]. Here, the same amount of PBS was injected into the control group. The peptide was injected, and after 24 h, 1 mL (1.25 mg) of FITC-dextran (250 kDa) was injected into the left ventricle of each mouse to allow circulation for approximately 5 min. The mice were euthanized by cervical dislocation, and the eyeballs were extracted and fixed in 4% paraformaldehyde at room temperature for 1 h. The retina was isolated from the fixed eyeball to prepare a retinal flat mount, and vascular leakage was observed under a confocal microscope. Meanwhile, the fluorescence of FITC-dextran leaked from retinal vessels was measured using Fluoview software.

[6] = cited from earlier work; remark: listed apart in the source
[7] = tested on: choroidal neovascularization (CNV); assay: Therapeutic laser-induced CNV mouse model, treatment 10 days after laser irradiation (CNV area); type: in vivo; conditions: 1 µL of 1.5 mM intravitreal 10 days after laser irradiation; day 4 after treatment
Description: […]. Here, the same amount of saline was injected into the control group. After 4 days (14 days after the laser irradiation), an experiment for analyzing a therapeutic effect was carried out by extracting the eyeballs of the mice. The extracted eyeballs were fixed in 4% paraformaldehyde for 12 h, and embedded in paraffin. Sections with a thickness of 4 μm were prepared from paraffin tissue, and subjected to H&E staining. Afterward, an image of a section with the largest choroidal neovascular membrane area was taken from each subject, and the area of the choroidal neovascular membrane was quantitatively analyzed using ImageJ program (NIH, Bethesda, Rockville, MD, USA). In the saline-injected control group, the average of the choroidal neovascular areas was represented as 100%, and a therapeutic effect of each treatment group was analyzed.

[8] = tested on: VEGF-induced angiogenesis; set-up: method as in PMID 10747021; conditions: slow-releasing hydrogel implants in corneal stroma; assessed on day 12; cited from earlier work

ranibizumab: an anti-VEGF therapy (anti-VEGF antibody), positive control
t1/2 (ocular) [1]: 52.4 h
volume of distribution [1]: 2.7 mL
degree of reduction of the CNV area compared with vehicle [2]: 53%–60%

aflibercept: fusion protein of ligand-binding elements of VEGFR-1 and VEGFR-2 fused to the Fc portion of IgG
CNV area ([3]; 145 ng/1 µL/eye intravitreal on day of laser irradiation): significantly reduced
retinal fluorescence intensity vs vehicle group [4]: significantly reduced
t1/2 (ocular) [1]: 94.1 h
volume of distribution [1]: 1.4 mL
retinal fluorescence intensity vs vehicle control ([5]; 2000 µg/eye intravitreal on day 7 after laser, days 7, 14, 21, 28, 35 and 42 after administration): significantly lower
CNV lesions (CNV area) compared with vehicle control, reduced to ([5]; aflibercept 2000 µg/eye, day 42 after drug administration): 38.9% and 36%

bevacizumab: anti-VEGF antibody
degree of reduction of the CNV area compared with vehicle [2]: 46%–60%

Arg-Leu-Tyr-Glu (RLYE; printed: Arg-Leu-Tyr-Glu) [antiangiogenic tetrapeptide derived from the human plasminogen kringle-5 domain]
CNV area ([3]; 1 ng/1 µL/eye intravitreal on day of laser irradiation): significantly reduced
retinal vascular leakage (FITC-dextran) (retinal vascular leakage): effectively inhibited
serum half-life [6]: 1.2 h
degree of CNV area reduction compared with vehicle [7]: 55%
occurrence of CNV (CNV area) [7]: significantly reduced the CNV area; also recorded: effectively reduced

ATWLPPR
VEGF-induced angiogenesis [8]: abolish VEGF-induced angiogenesis
